Results taken from patent US6569858B2, “12,13-(pyranosyl)-indolo[2,3-a]pyrrolo[3,4-c]carbazole and 12,13-(pyranosyl)-furo[3,4-c]indolo[2,3-a]carbazoles” (Les Laboratoires Servier, priority 1999, dated 2003).

System: murine leukaemia L1210
Experiment: Murine leukaemia L1210 in vitro cytotoxicity (Microculture Tetrazolium Assay)
Type: cell-based
Settings: L1210, exposure 48 hours (four doubling periods); read-out: IC50, the cytotoxic concentration that inhibits proliferation of treated cells by 50%
Description: The murine leukaemia L1210 was used in vitro. The cells are cultured in complete RPMI 1640 culture medium comprising 10% foetal calf serum, 2 mM glutamine, 50 units/ml of penicillin, 50 μg/ml of streptomycin and 10 mM Hepes, pH 7.4. The cells are distributed on microplates and are exposed to the cytotoxic compounds for four doubling periods, that is to say 48 hours. The number of viable cells is then quantified by a colorimetric assay, the Microculture Tetrazolium Assay (J. Carmichael et al., Cancer Res., 47, 936-942, (1987)). The results are expressed as IC50, the cytotoxic concentration that inhibits proliferation of treated cells by 50%.

SMILES | IC50
COC1C(CO)OC2C(C1O)n1c3ccc([N+](=O)[O-])cc3c3c4c(c5c6cc([N+](=O)[O-])ccc6n2c5c31)C(=O)NC4=O [Example 13, 3,9-Dinitro-12,13-[1,2-(4—O-methyl-β-D-mannopyranosyl)]-6,7,12,13-tetrahydro-(5,H)-indolo[2,3-a]pyrrolo[3,4-c]carbazole-5,7-dione] | 130 nM
COC1C(CO)OC2C(C1O)n1c3ccc(Br)cc3c3c4c(c5c6cc(Br)ccc6n2c5c31)C(=O)NC4=O [Example 19, 3,9-Dibromo-12,13-[1,2-(4—O-methyl-β-D-mannopyranosyl)]-6,7,12,13-tetrahydro-(5H)-indolo[2,3-a]pyrrolo[3,4-c]carbazole-5,7-dione] | 140 nM
